# Source: paper PMC5900554, “Fragment-Based Approach to Targeting Inosine-5′-monophosphate Dehydrogenase (IMPDH) from Mycobacterium tuberculosis” (Journal of Medicinal Chemistry, 2018)
# Read-outs that look alike come from different tables or passages of the source.
# What was measured:
# [1] = target: T1, Mth IMPDH ΔCBS (Mycolicibacterium thermoresistibile, UniProt G7CNL4, R236G); assay type: biochemical, Mycobacterium thermoresistible; settings: SAR statement in text
# [2] = target: T1, Mth IMPDH ΔCBS; assay: Inhibition constants (Ki) and mode of inhibition against Mth IMPDH ΔCBS with respect to IMP and NAD+; assay type: biochemical, Mycobacterium thermoresistible; design: key to Pattern of inhibition with respect to IMP / Pattern of inhibition with respect to NAD: UC: Uncompetitive inhibition; settings: for Pattern of inhibition with respect to IMP / Pattern of inhibition with respect to NAD: UC = uncompetitive; for Pattern of inhibition with respect to IMP / IMP αKi: with respect to IMP; for IMP αKi: fixed saturating NAD+ ([…]); for Pattern of inhibition with respect to NAD / NAD αKi: with respect to NAD+; for NAD αKi: constant saturating IMP (1 mM)
# Procedure: The inhibition constant [Ki] with respect to both substrates IMP and NAD^+ was determined by assaying various concentrations of each inhibitor with five different concentrations of substrate and a fixed saturating concentration of the cosubstrate.
# (§1) The initial velocities at various inhibitor concentrations were determined based on the slope in the linear part of each reaction containing the inhibitor and the uninhibited reaction. To determine the inhibition constant (Ki values), the initial rate data versus substrate concentration at different inhibitor concentrations were fit using Prism software (GraphPad) to equations for uncompetitive or mixed inhibition. For each inhibitor concentration, the reciprocal of enzyme reaction velocity versus the reciprocal of the substrate concentration was plotted in a Lineweaver–Burk plot to determine the pattern of inhibition.
# [3] = target: full-length Mtb IMPDH (Mycobacterium tuberculosis, UniProt P9WKI7); assay: Inhibition constants toward full-length Mtb IMPDH; assay type: biochemical
# Procedure: as §1
# [4] = IMP as the substrate, read-out: Ki with IMP as the substrate
# [5] = NAD as the substrate, read-out: Ki with NAD as the substrate
SMILES,Mth IMPDH ΔCBS inhibitory activity (in words) [1],Pattern of inhibition with respect to IMP [2],IMP αKi [2],Pattern of inhibition with respect to NAD [2],NAD αKi [2],"Ki [3, 4]","Ki [3, 5]"
"O=C(O)CSc1nc(-c2ccccc2)c[nH]1 [Compound 28, 2-((4-Phenyl-1H-imidazol-2-yl)thio)acetic Acid]",complete loss in activity,,,,,,
"CC(C)NC(=O)CSc1nc(-c2ccccc2)c[nH]1 [Compound 26, N-Isopropyl-2-((4-phenyl-1H-imidazol-2-yl)thio)acetamide]",complete loss of activity,,,,,,
Brc1ccc(-c2c[nH]cn2)cc1 [Compound 2],,uncompetitive and UC,609 ± 3 µM,uncompetitive and UC,512 ± 23 µM,572 ± 14 µM,534 ± 18 µM
CC(=O)Nc1cc(C)ccc1O [Compound 18],,uncompetitive and UC,554 ± 70 µM,UC,452 ± 26 µM,,
Oc1ccc2ccc(O)cc2c1 [Compound 11],,uncompetitive and UC,361 ± 53 µM,UC,310 ± 30 µM,,
Cc1ccc(-c2nc(C(=O)O)cs2)cc1 [Compound 16],,Mixed,,UC,525 ± 64 µM,,
"COc1ccc(OC(C)C(=O)Nc2ccc(I)cc2)cc1 (centres unmarked) [Compound 1, reference compound]",,uncompetitive and UC,,uncompetitive and UC,0.55 ± 0.02 µM,,
CC1(C)Cc2cccc(CO)c2O1 [Compound 19],,Mixed,126 ± 34 µM,UC,355 ± 47 µM,,
"CC(Oc1ccc(-c2cn(C)cn2)cc1)C(=O)Nc1ccccc1 (centres unmarked) [Compound 34, 2-(4-(1-Methyl-1H-imidazol-4-yl)phenoxy)-N-phenylpropanamide]",complete loss of activity,,,,,,
O=C(O)c1cc2sccc2s1 [Compound 14],,Mixed,238 ± 6 µM,UC,262 ± 39 µM,,
"CC(Oc1ccc(-c2cn(C)cn2)cc1)C(=O)Nc1nc(-c2ccc(Br)cc2)c[nH]1 (centres unmarked) [Compound 31, N-(4-(4-Bromophenyl)-1H-imidazol-2-yl)-2-(4-(1-methyl-1H-imidazol-4-yl)phenoxy)propanamide]",,uncompetitive,0.30 ± 0.02 µM,uncompetitive,0.20 ± 0.01 µM,0.61 ± 0.05 µM,0.39 ± 0.02 µM
"O=C(O)CSc1nc(-c2ccc(Br)cc2)c[nH]1 [Compound 27, 2-((4-(4-Bromophenyl)-1H-imidazol-2-yl)thio)acetic Acid]",complete loss in activity,,,,,,
